{"source": "paper PMC7762498", "about": "“Demethoxycurcumin analogue DMC-BH exhibits potent anticancer effects on orthotopic glioblastomas” (Aging (Albany NY), 2020)", "key": {"[1]": {"experiment": "Rat pharmacokinetic study", "type": "in vivo, rats", "parameters": "Vz_F_obs (volume of distribution): unit not given here", "conditions": "for MRT last: read-out: MRTlast (mean residence time); for half-life: read-out: T1/2 (half-life) (converted)", "experimental": "Rat PK studies were performed to study whether DMC-BH is more bioavailable than did DMC.\nFemale Sprague-Dawley (SD) rats (n = 3) were purchased from the Shanghai Experimental Animal Center of Chinese Academy of Science (Shanghai, China). After 3 days of acclimatization, DMC-BH or DMC was administered intravenously into the jugular vein catheters at a dose of 1.00 mg/kg. After oral administration, blood samples (250 μL) were collected via jugular vein catheters at 30, 60, 90, 120, 150, 180 and 240 minutes and 8, 12 and 24 hours. Plasma samples were prepared by centrifuging the blood samples at 13,000 g for 5 minutes. All plasma samples were stored immediately at -80° C until analyzed. Analytes were extracted from 100 μL of plasma with 300 μL of acetonitrile containing 125 ng/mL of the internal standard (midazolam). The samples were thoroughly mixed and centrifuged at 8,000 g. The organic extract was added to 150 μL of 5mM NH4FA and transferred to the autosampler for LC-MS/MS analysis. Multiple reaction monitoring mode, a highly specific and sensitive label-free technique was performed by scanning the most sensitive signals. The pharmacokinetic parameters were determined using non-compartmental analysis (WinNonlin, Pharsight Corporation, Mountain View, CA, USA)."}, "[2]": {"experiment": "BBB penetrability (brain-to-plasma AUC ratio)", "type": "in vivo", "excerpt": "To determine whether DMC-BH inhibits the growth of glioma in the brain, we assessed its octanol-water partition coefficients and BBB penetrability. The hydrophobic parameters (logP) of DMC-BH and DMC were estimated under physiological as well as in acidic and basic conditions. The logP values for DMC-BH were negative at pH 2.5 and pH 9.0, as it was an amphoteric compound. At low pH or high pH conditions, DMC-BH occurred in the form of salts, and its logP values became negative due to better solubility.\nFigure 2 Octanol-water partition coefficients (logP) and BBB penetrability of DMC-BH. (A) The logP was defined as log(Coctanol/Cwater). The amount of the compound in the water phase was determined spectrophotometrically, and the amount in the octanol phase was obtained by subtracting the supernatant concentration from the total concentration. (B) The BBB penetrability was defined as a brain-to-plasma AUC(time point) ratio. Values are expressed as the means ± SEM of 3 independent experiments."}, "U87 cell line": {"tested_on": "U87 cell line", "experiment": "Subcutaneous human glioma xenograft in SCID mice", "type": "in vivo", "conditions": "for tumor volume at day 21: U87 subcutaneous xenograft, 20 mg/kg/day intraperitoneal, 21 days, control 1514 mm^3; for median survival: U87 xenograft, 20 mg/kg, control 15 days", "excerpt": "To examine the anti-glioma effects of DMC-BH in vivo, a human glioma-SCID (severe combined immunodeficient) mouse model was established using the U87 cell line. […] The tumor volumes for the control, TMZ, DMC, and DMC-BH mice at day 21 were 1514 mm^3, 587 mm^3, 876 mm^3 and 570 mm^3, respectively. […] As shown in the Kaplan-Meier curves, the median survival was 15, 27, 19 and 35 days for the control, TMZ, DMC and DMC-BH groups, respectively (Figure 3B).\nFigure 3 DMC-BH inhibited U87 glioma cell growth in vivo. Subcutaneous tumors generated from U87 cells were allowed to reach a volume of 150-200 mm^3 and were treated with 20 mg/kg TMZ, DMC or DMC-BH for 21 days. (A) Tumor volume was recorded according to treatment group at the indicated day. (B) The survival of brain tumor-bearing mice was recorded and represented in a Kaplan-Meier plot.\n1-[4-Hydroxy-3-(pyrrolidin-1-ylmethyl) phenyl]-7-(4-hydroxy-3-methoxyphenyl) hepta-1,6-diene-3,5-dione, named DMC-BH, was constructed by our lab. DMC was obtained from Sigma-Aldrich (St. Louis, MO). To test the anti-glioma effect of DMC-BH in vivo, a xenograft model of human glioma was established. Four-week-old male SCID mice were purchased from Vital River Laboratory Animal Technology Co., Ltd. (Beijing, China). After a 1-week acclimatization, SCID mice were injected subcutaneously in the right flank with 6 × 10^5 […] glioma cells resuspended in 50 μL DMEM media. Treatment was initiated when the subcutaneous tumors reached an average size of 150 mm^3 to 200 mm^3. Mice received intraperitoneal injection of DMC (20 mg/kg/day), DMC-BH (20 mg/kg/day), TMZ (20 mg/kg/day) or vehicle as a control. Tumor diameter was measured every 2 days with calipers, and the tumor volume was calculated (length × width × height × 0.5). All experiments were carried out in keeping with the procedures and protocols of the Animal Ethics Committee of the First People's Hospital of Kunshan."}, "p-Akt": {"tested_on": "p-Akt", "experiment": "Western blot of orthotopic xenograft tissue, p-Akt", "type": "in vivo, mice", "conditions": "U87 orthotopic xenografts, versus control", "excerpt": "(§1) The PI3K/Akt/mTOR signaling pathway is over activated in glioma tissues, and this increased activation is closely related to malignancy and chemoresistance of gliomas. Previous research reported that among its potential anti-tumor actions in breast cancer, DMC targeted multiple AMPK downstream pathways involving dephosphorylation of Akt and mTOR inhibition. Because DMC-BH is a DMC derivative, we further investigated the inhibitory effects of DMC-BH on gliomas by targeting the Akt/mTOR signaling pathway. We evaluated the expression of p-Akt, and p-mTOR in tumor tissues after DMC-BH treatment (Figure 6A). […] No significant changes were found in total Akt and mTOR expression. Moreover, the expression of p-Akt and p-mTOR in the DMC group was decreased with that in the control group (P < 0.05).\n(§2) Figure 6 The effects of DMC-BH and DMC on the Akt/mTOR signaling pathway in U87 orthotopic glioblastoma xenografts. (A) Total protein was extracted from U87 orthotopic glioblastoma xenografts. Then p-Akt and p-mTOR protein expression was detected by Western blot. (B) The column chart illustrates the relative expression levels of these proteins."}, "p-mTOR": {"tested_on": "p-mTOR", "experiment": "Western blot of orthotopic xenograft tissue, p-mTOR", "type": "in vivo, mice", "conditions": "U87 orthotopic xenografts, versus control", "excerpt": "as §1, §2"}, "[3]": {"conditions": "female, Sprague-Dawley, plasma, iv, 1.00 mg/kg"}, "[4]": {"conditions": "female, Sprague-Dawley, plasma, po, i.g., 10.0 mg/kg"}}, "note": "Where two headings read alike, the source gives them in different places."}
{"molecule": "COc1cc(C=CC(=O)CC(=O)C=Cc2ccc(O)c(CN3CCCC3)c2)ccc1O", "note": "[DMC-BH, 1-[4-Hydroxy-3-(pyrrolidin-1-ylmethyl)phenyl]-7-(4-hydroxy-3-methoxyphenyl) hepta-1,6-diene-3,5-dione]", "values": [{"measurement": "AUC(0-t)", "setting": "[1]; [3]", "result": "634 ± 127", "unit": "ng·h/mL"}, {"measurement": "Cmax", "setting": "[1]; female, Sprague-Dawley, plasma, iv, 1.00 mg/kg, read-out: Cmax", "result": "938 ± 231", "unit": "ng/mL"}, {"measurement": "MRT last", "setting": "[1]; [3]", "result": "1.85 ± 0.21", "unit": "h"}, {"measurement": "half-life", "setting": "[1]; [3]", "result": "2.54 ± 0.23", "unit": "h"}, {"measurement": "Tmax", "setting": "[1]; female, Sprague-Dawley, plasma, iv, 1.00 mg/kg, read-out: Tmax", "result": 0.08, "unit": "h"}, {"measurement": "Vd", "setting": "[1]; female, Sprague-Dawley, plasma, iv, 1.00 mg/kg, read-out: Vz_F_obs (volume of distribution)", "result": "4.9 ± 0.783", "unit": "L/kg"}, {"measurement": "bioavailability", "setting": "[1]; female, Sprague-Dawley, plasma, oral, i.g. 10.0 mg/kg versus i.v. 1.00 mg/kg, read-out: F (percent oral bioavailability)", "result": 57.1, "unit": "%"}, {"measurement": "AUC(0-t)", "setting": "[1]; [4]", "result": "3620 ± 623", "unit": "ng·h/mL"}, {"measurement": "CL/F", "setting": "[1]; female, Sprague-Dawley, plasma, po, i.g., 10.0 mg/kg, read-out: Cl_F_obs (plasma clearance rate) (converted)", "result": 113, "unit": "mL/min/kg"}, {"measurement": "Cmax", "setting": "[1]; female, Sprague-Dawley, plasma, po, i.g., 10.0 mg/kg, read-out: Cmax", "result": "1260 ± 385", "unit": "ng/mL"}, {"measurement": "MRT last", "setting": "[1]; [4]", "result": "4.21 ± 0.16", "unit": "h"}, {"measurement": "half-life", "setting": "[1]; [4]", "result": "7.82 ± 1.54", "unit": "h"}, {"measurement": "Tmax", "setting": "[1]; female, Sprague-Dawley, plasma, po, i.g., 10.0 mg/kg, read-out: Tmax", "result": "1.45 ± 0.35", "unit": "h"}, {"measurement": "Vd/F", "setting": "[1]; female, Sprague-Dawley, plasma, po, i.g., 10.0 mg/kg, read-out: Vz_F_obs (volume of distribution)", "result": "54.4 ± 19.1", "unit": "L/kg"}, {"measurement": "Cl F obs (plasma clearance rate)", "setting": "[1]; i.v., 1.00 mg/kg", "result": "24.6 ± 4.28", "unit": "mL/min/kg"}, {"measurement": "increased exposure (AUC) when administered orally compared to DMC", "setting": "[1]; oral", "result": "approximately 6 fold"}, {"measurement": "Kp at 4 h", "setting": "[2]; brain and plasma", "result": 4.6}, {"measurement": "tumor volume at day 21", "setting": "U87 cell line", "result": 570, "unit": "mm^3"}, {"measurement": "median survival", "setting": "U87 cell line", "result": 35, "unit": "days"}, {"measurement": "p-Akt expression in tumor tissues", "setting": "p-Akt", "result": "significantly decreased"}, {"measurement": "p-mTOR expression in tumor tissues", "setting": "p-mTOR", "result": "significantly decreased"}]}
{"molecule": "Demethoxycurcumin [DMC, reference compound]", "values": [{"measurement": "F (percent oral bioavailability)", "setting": "[1]; i.g. 10.0 mg/kg versus i.v. 1.00 mg/kg", "result": 8.3, "unit": "%"}, {"measurement": "AUClast", "setting": "[1]; i.g., 10.0 mg/kg", "result": "620 ± 271", "unit": "ng·h/mL"}, {"measurement": "Cl F obs (plasma clearance rate)", "setting": "[1]; i.g., 10.0 mg/kg", "result": "12.8 ± 1.63", "unit": "mL/min/kg"}, {"measurement": "Cmax", "setting": "[1]; i.g., 10.0 mg/kg", "result": "216 ± 46", "unit": "ng/mL"}, {"measurement": "MRTlast (mean residence time)", "setting": "[1]; i.g., 10.0 mg/kg", "result": "3.12 ± 0.45", "unit": "h"}, {"measurement": "T1/2 (half-life)", "setting": "[1]; i.g., 10.0 mg/kg", "result": "4.32 ± 1.98", "unit": "h"}, {"measurement": "Tmax", "setting": "[1]; i.g., 10.0 mg/kg", "result": "0.67 ± 0.12", "unit": "h"}, {"measurement": "Vz_F_obs (volume of distribution)", "setting": "[1]; i.g., 10.0 mg/kg", "result": "6543 ± 687"}, {"measurement": "AUClast", "setting": "[1]; i.v., 1.00 mg/kg", "result": "742 ± 254", "unit": "ng·h/mL"}, {"measurement": "Cl F obs (plasma clearance rate)", "setting": "[1]; i.v., 1.00 mg/kg", "result": "21.6 ± 3.67", "unit": "mL/min/kg"}, {"measurement": "Cmax", "setting": "[1]; i.v., 1.00 mg/kg", "result": "754 ± 275", "unit": "ng/mL"}, {"measurement": "MRTlast (mean residence time)", "setting": "[1]; i.v., 1.00 mg/kg", "result": "1.32 ± 0.29", "unit": "h"}, {"measurement": "T1/2 (half-life)", "setting": "[1]; i.v., 1.00 mg/kg", "result": "1.24 ± 0.21", "unit": "h"}, {"measurement": "Tmax", "setting": "[1]; i.v., 1.00 mg/kg", "result": "0.08 ± 0.00", "unit": "h"}, {"measurement": "Vz_F_obs (volume of distribution)", "setting": "[1]; i.v., 1.00 mg/kg", "result": "5421 ± 432"}, {"measurement": "brain-to-plasma AUC(4h) ratio", "setting": "[2]", "result": 0.56}, {"measurement": "tumor volume at day 21", "setting": "U87 cell line", "result": 876, "unit": "mm^3"}, {"measurement": "median survival", "setting": "U87 cell line", "result": 19, "unit": "days"}, {"measurement": "p-Akt expression in tumor tissues", "setting": "p-Akt", "result": "decreased"}, {"measurement": "p-mTOR expression in tumor tissues", "setting": "p-mTOR", "result": "decreased"}]}
